Reference: the supplement of paper PMC10307832

How the values were obtained:
Experiment in all cases: relative viability (nuclei count vs DMSO), 5 days (fraction); higher = more cells survive
Sunitinib + Navitoclax = compound: CCN(CC)CCNC(=O)c1c(C)[nH]c(/C=C2\C(=O)Nc3ccc(F)cc32)c1C [Sunitinib] + CC1(C)CCC(c2ccc(Cl)cc2)=C(CN2CCN(c3ccc(C(=O)NS(=O)(=O)c4ccc(N[C@H](CCN5CCOCC5)CSc5ccccc5)c(S(=O)(=O)C(F)(F)F)c4)cc3)CC2)C1 [Navitoclax] (partner 0.5 µM)
Outline: (§1)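 Relative viability was taken as the ratio of nuclei in treated wells to nuclei in vehicle wells. Lung cancer cell lines in 1536-well plates received compounds by pin tool one day after seeding, either one drug alone or a fixed anchor-drug dose plus five library-drug doses (not always all listed) in √10 steps. Nuclei were counted on 4× images after 5 days of treatment, and values are medians of duplicate plates.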

Sunitinib + Crizotinib = compound: CCN(CC)CCNC(=O)c1c(C)[nH]c(/C=C2\C(=O)Nc3ccc(F)cc32)c1C [Sunitinib] + C[C@@H](Oc1cc(-c2cnn(C3CCNCC3)c2)cnc1N)c1c(Cl)ccc(F)c1Cl [Crizotinib] (partner 1 µM)
Outline: as §1

Sunitinib + Tozasertib = compound: CCN(CC)CCNC(=O)c1c(C)[nH]c(/C=C2\C(=O)Nc3ccc(F)cc32)c1C [Sunitinib] + Cc1cc(Nc2cc(N3CCN(C)CC3)nc(Sc3ccc(NC(=O)C4CC4)cc3)n2)n[nH]1 [Tozasertib] (partner 0.1 µM)
Outline: as §1

Sunitinib + Vorinostat = compound: CCN(CC)CCNC(=O)c1c(C)[nH]c(/C=C2\C(=O)Nc3ccc(F)cc32)c1C [Sunitinib] + O=C(CCCCCCC(=O)Nc1ccccc1)NO [Vorinostat] (partner 1 µM)
Outline: as §1

Cell Line	relative viability (Sunitinib + Navitoclax; first compound 0.02 µM)	relative viability (Sunitinib + Navitoclax; first compound 0.06325 µM)	relative viability (Sunitinib + Navitoclax; first compound 0.2 µM)	relative viability (Sunitinib + Navitoclax; first compound 0.6325 µM)	relative viability (Sunitinib + Navitoclax; first compound 2 µM)	relative viability (Sunitinib + Crizotinib; first compound 0.02 µM)	relative viability (Sunitinib + Crizotinib; first compound 0.06325 µM)	relative viability (Sunitinib + Crizotinib; first compound 0.2 µM)	relative viability (Sunitinib + Crizotinib; first compound 0.6325 µM)	relative viability (Sunitinib + Crizotinib; first compound 2 µM)	relative viability (Sunitinib + Tozasertib; first compound 0.02 µM)	relative viability (Sunitinib + Tozasertib; first compound 0.06325 µM)	relative viability (Sunitinib + Tozasertib; first compound 0.2 µM)	relative viability (Sunitinib + Tozasertib; first compound 0.6325 µM)	relative viability (Sunitinib + Tozasertib; first compound 2 µM)	relative viability (Sunitinib + Vorinostat; first compound 0.02 µM)	relative viability (Sunitinib + Vorinostat; first compound 0.06325 µM)	relative viability (Sunitinib + Vorinostat; first compound 0.2 µM)	relative viability (Sunitinib + Vorinostat; first compound 0.6325 µM)	relative viability (Sunitinib + Vorinostat; first compound 2 µM)
NCI-H1437	1.06	1.2	1.19	1.13	1.16	0.979	0.959	1.09	0.909	0.899	0.391	0.302	0.408	0.39	0.41	0.804	0.839	0.876	0.887	
NCI-H441		0.684	0.946	0.808	0.368	0.686	0.802	0.831	0.858		0.706	0.639	0.652	0.71	0.494	0.67	0.833		0.984	0.85
NCI-H322M	1.25	1.18	1.3	1.25	1.34	0.845	0.891	0.951	0.891	1.08	0.452	0.464	0.546	0.547	0.42	0.9	0.807	0.931	0.847	0.702
LOU-NH91	0.727	0.665	0.746	0.734	0.564	0.733	0.732	0.789	0.71	0.746	0.666	0.732	0.673	0.753	0.738	0.928	0.96	0.997	1	0.884
EPLC-272H	1.09	1.2	1.38	1.12	0.921	0.906	0.736	0.959		0.706	0.382	0.333	0.285	0.196	0.318	0.512	0.479	0.424	0.397	0.555
NCI-H2023		1.05	1.11	1.06	0.975	0.628	0.67	0.792	0.654	0.667	0.304	0.301	0.382	0.239	0.181	0.575	0.585	0.906	0.812	0.488
CAL-12T	1.18	1.32	1.44	1.36	1.36	0.564	0.735	0.623	0.791	0.582	0.324	0.302	0.314	0.324	0.213	0.541	0.864	1.04	0.902	0.682
NCI-H1755				1.04	0.993	0.753	0.874	0.89	0.904	0.857	0.561	0.529	0.752	0.593	0.569	0.735	0.878	0.897	0.758	0.842
NCI-H3122	0.975	1.04	1.07	1.04	0.983	0.273	0.247	0.249	0.241	0.297	0.429	0.475	0.539	0.433	0.567	0.958	1.02	1.03	1.05	1.02
NCI-H727	0.433	0.45	0.454	0.523	0.396	0.724	0.832	0.808	0.926	0.738	0.603	0.686	0.565	0.658	0.529	1.12	1.22	1.18	1.18	1.25
COR-L 105	0.752	0.868	0.832	0.921	0.959	0.513	0.811	0.995	0.894	0.695	0.365	0.378	0.371	0.401	0.41	0.856	0.646	0.817	0.797	0.744
H3255	0.477	0.52	0.634	0.548	0.519	0.836	0.831	0.876	1.05	0.917	0.763	0.879	0.785	0.73	0.654	0.672	0.573	0.835	0.827	0.822
LCLC-97TM1	0.465	0.402		0.401	0.323	0.347	0.384		0.319	0.362	0.202	0.214	0.268	0.195	0.236	0.638	0.943	0.713	0.887	0.768
NCI-H460	0.862	1.19	1.37	1.41	1.08	0.874	0.945	1.2	1.17	0.638	0.427	0.206	0.421	0.292	0.104	0.667	0.848	1.01	0.91	0.836
HCC-366	0.963	1.06		1.05	0.971	0.559	0.519	1.02	0.593	0.551	0.12	0.0634	0.133	0.0819	0.0457	0.326	0.388	0.487	0.442	0.468
A-427	0.954	0.987	0.999	1	1.12	0.865	0.885	1.09	0.847	0.787	0.225	0.233	0.219	0.213	0.194	0.871	0.915	0.912	0.887	0.898
